We go through 1 substance from article PMC11530122, “Mutant induced neurons and humanized mice enable identification of Niemann-Pick type C1 proteostatic therapies” (JCI Insight, 2024).

In general, EC50 refers to the concentration at which the effect is half-maximal. Higher therefore signals weaker potency.

For this test, the target named is T1, NPC1 (Homo sapiens, UniProt O15118).
T1 construct: full-length WT human NPC1, C-terminal Strep tag, in peptidiscs
T1 sequence (O15118 23-1278): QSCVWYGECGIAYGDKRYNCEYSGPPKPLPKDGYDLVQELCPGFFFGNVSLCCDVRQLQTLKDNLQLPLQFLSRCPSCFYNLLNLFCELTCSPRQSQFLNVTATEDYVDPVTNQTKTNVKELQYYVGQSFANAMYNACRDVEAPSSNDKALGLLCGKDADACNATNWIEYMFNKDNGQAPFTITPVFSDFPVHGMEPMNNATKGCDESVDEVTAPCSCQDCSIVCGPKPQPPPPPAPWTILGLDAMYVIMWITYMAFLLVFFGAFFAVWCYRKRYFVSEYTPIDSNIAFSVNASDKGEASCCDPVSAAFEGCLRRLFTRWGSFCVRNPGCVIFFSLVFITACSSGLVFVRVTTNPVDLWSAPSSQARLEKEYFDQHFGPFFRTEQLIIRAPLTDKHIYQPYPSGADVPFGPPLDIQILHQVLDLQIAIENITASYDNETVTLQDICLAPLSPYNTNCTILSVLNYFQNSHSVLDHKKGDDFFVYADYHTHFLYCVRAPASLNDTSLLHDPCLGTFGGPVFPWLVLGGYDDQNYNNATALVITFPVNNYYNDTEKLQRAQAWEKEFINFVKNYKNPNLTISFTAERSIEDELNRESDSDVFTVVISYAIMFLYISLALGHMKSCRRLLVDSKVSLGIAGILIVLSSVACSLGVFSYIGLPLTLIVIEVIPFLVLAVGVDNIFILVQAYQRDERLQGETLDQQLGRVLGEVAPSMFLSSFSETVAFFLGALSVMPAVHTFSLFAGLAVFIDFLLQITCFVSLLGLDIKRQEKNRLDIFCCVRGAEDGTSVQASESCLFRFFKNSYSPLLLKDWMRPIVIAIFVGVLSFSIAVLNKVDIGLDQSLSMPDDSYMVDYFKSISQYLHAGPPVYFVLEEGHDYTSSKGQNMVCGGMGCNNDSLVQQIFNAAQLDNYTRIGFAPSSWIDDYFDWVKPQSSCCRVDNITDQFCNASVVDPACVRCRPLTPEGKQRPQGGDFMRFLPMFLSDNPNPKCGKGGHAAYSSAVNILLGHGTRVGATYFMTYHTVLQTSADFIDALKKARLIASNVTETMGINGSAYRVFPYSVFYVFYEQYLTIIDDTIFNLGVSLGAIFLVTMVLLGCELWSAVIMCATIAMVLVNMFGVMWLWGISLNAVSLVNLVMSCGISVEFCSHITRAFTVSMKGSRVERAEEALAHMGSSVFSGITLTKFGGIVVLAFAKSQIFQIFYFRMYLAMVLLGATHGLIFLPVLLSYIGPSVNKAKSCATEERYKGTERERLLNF
The experiment in a line: microscale thermophoresis; nanoDSF thermal stability with purified NPC1 (EC50 approximately […]). In kind it is binding. Background: In MST a laser heats a spot of the sample, and binding alters the fluorescence response.

As for mo56-hydroxycholesterol [mo56Hc], the EC50 was found to be 177 nM.
